Measurements: patent US9057727B2, “Screening methods using G-protein coupled receptors and related compositions” (The General Hospital Corporation, priority 2007, dated 2015)
Ends that are not written are not given here. Peptide text beside a SMILES is read from it.

Experiments:
[1] = system: SaOS cells; assay: cAMP production in SaOS cells, dose-response; assay type: cell-based; details: Table 3; read-out: dose-response cAMP in SaOS (EC50)
[2] = biological target: T1, human PTHR, G protein-coupled conformation (RG) (Homo sapiens, UniProt Q03431); assay: Competition binding to RG conformation of hPTHR (COS-7 membranes, GαsND, 125I-[Aib1,3,M]PTH(1-15) tracer)
T1 construct: expressed in transfected cells; host or cells: COS-7, transient (Fugene-6); membranes
T1 sequence (Q03431 27-593): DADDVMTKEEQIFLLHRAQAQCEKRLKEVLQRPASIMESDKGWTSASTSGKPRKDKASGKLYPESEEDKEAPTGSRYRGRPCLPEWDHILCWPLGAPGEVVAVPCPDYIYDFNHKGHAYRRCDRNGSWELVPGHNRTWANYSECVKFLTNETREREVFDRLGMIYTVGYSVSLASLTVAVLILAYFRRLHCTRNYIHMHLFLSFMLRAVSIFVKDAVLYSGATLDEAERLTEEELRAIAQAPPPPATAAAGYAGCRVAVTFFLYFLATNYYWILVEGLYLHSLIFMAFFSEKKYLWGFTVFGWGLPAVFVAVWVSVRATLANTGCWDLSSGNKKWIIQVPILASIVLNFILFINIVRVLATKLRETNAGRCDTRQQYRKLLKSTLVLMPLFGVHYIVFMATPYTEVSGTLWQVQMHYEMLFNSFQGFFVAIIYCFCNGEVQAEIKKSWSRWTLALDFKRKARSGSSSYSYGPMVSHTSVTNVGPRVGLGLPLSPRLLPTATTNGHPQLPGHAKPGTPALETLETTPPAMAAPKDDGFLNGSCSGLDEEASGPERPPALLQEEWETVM

[3] = system: LLCPK1-B64 cells or SaOS-2 cells; assay: cAMP screen of substituted PTHrP(1-28) analogs (% parent); assay type: cell-based; details: parent PTHrP(1-28)NH
Summary of the method: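 LLCPK1-B64 or SaOS-2 cells exposed to peptide analogs at 3×10^−9M with IBMX for 30 minutes at room temperature, then cAMP measured. Each analog's response expressed as percentage of that for parent PTHrP(1-28).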

[4] = biological target: T2, human PTHR, G protein-uncoupled conformation (R^0) (Homo sapiens, UniProt Q03431); assay: Competition binding to R0 conformation of hPTHR (COS-7 membranes, GTPγS, 125I-PTH(1-34) tracer); details: parent PTHrP(1-28)NH
T2 construct: expressed in transfected cells; host or cells: COS-7, transient (Fugene-6)
T2 sequence (Q03431 27-593): T1 sequence (Q03431 27-593)
Summary of the method: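 Membranes from hPTHR-transfected COS-7 cells (20-100 μg/mL protein) incubated 90 min with radioligand (~150,000 cpm/ml) and unlabeled ligands, then filtered. Specific binding expressed as % of binding without competitor.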

[5] = system: MC3T3-E1 cells; assay: cAMP screen of EALK-PTHrP(1-31)/(1-34) variants (% parent); assay type: cell-based
Source text: FIGS. 32A and 32B are graphs showing the effects of amino acid substitutions in the 29-31 region of EALK-PTHrP(1-31) (SEQ ID NO:94) (FIG. 32A) and the 29-33 region of EALK-PTHrP(1-34) (SEQ ID NO:112) (FIG. 32B) on induction of cAMP activity in MC3T3-E1 cells. Substitutions at position 29 for EALK-PTHrP(1-31) were G^29 to S^29 (SEQ ID NO:95-96), L^29 (SEQ ID NO:176), and N^29 to K^29 (SEQ ID NO:97-101). Substitutions at position 30 for EALK-PTHrP(1-31) were G^30 to D^30 (SEQ ID NO:102-106), W^30 (SEQ ID NO:177), and K^30 (SEQ ID NO:107). […] Substitutions for EALK-PTHrP(1-34) A^30 to A^33 (SEQ ID NO:113-116) and EALK-PTHrP(1-28)/PTH(29-34) (SEQ ID NO:117).
To optimize the activity of the EALK-PTHrP peptides, we generated EALK-PTHrP([…]) and PTHrP(1-34) variants with substitutions in the 29-33 region. In the 1-30 scaffold, Gly, Ser, Leu, Asn, Gln, Trp, Glu, and Lys were substituted at position 29; Gly, Ser, Leu, Asn, Asp, Trp, and Lys were substituted at position 30; and Ser, Leu, Asn, Val, Trp, Glu, and Lys were substituted at position 31. […] A predicted advantage of these longer-length peptides, relative to the PTHrP(1-30) scaffold, is that they will have longer a longer half-life in circulation due to slower clearance. The C-terminal substitutions were thus designed to provide the added chain length, but to avoid increasing R^0 binding affinity, which occurs when the native PTHrP(29-34) region (SEQ ID NO:186) is installed. These peptides were tested for cAMP activity in MC3T3-E1 cells.

[6] = system: MC3T3-E1 cells; assay: cAMP in MC3T3-E1 cells, dose-response; assay type: cell-based; details: Table 3; read-out: dose-response cAMP in MC3T3-E1 (EC50)
Experimental: In the 1-30 scaffold, Gly, Ser, Leu, Asn, Gln, Trp, Glu, and Lys were substituted at position 29; Gly, Ser, Leu, Asn, Asp, Trp, and Lys were substituted at position 30; and Ser, Leu, Asn, Val, Trp, Glu, and Lys were substituted at position 31. […] These peptides were tested for cAMP activity in MC3T3-E1 cells.

[7] = parent E18,A22,L25,K26-PTHrP(1-34)OH
[8] = parent E18,A22,L25,K26-PTHrP(1-31)OH

Compound | EC50 [1] | EC50 [6] | screen cAMP (% parent) [3] | screen cAMP (% parent) [5, 8] | further results
CC[C@H](C)[C@H](NC(=O)[C@H](CC(C)C)NC(=O)[C@H](CCCCN)NC(=O)[C@H](CC(C)C)NC(=O)[C@H](CC(C)C)NC(=O)[C@H](Cc1ccccc1)NC(=O)[C@H](CO)NC(=O)[C@H](CCCNC(=N)N)NC(=O)[C@H](CCCNC(=N)N)NC(=O)[C@H](CCCNC(=N)N)NC(=O)[C@H](C)NC(=O)[C@H](CC(=O)O)NC(=O)[C@H](CCC(N)=O)NC(=O)[C@@H](NC(=O)[C@H](CO)NC(=O)[C@H](CCCCN)NC(=O)CNC(=O)[C@H](CCCCN)NC(=O)[C@H](CC(=O)O)NC(=O)[C@H](Cc1c[nH]cn1)NC(=O)[C@H](CC(C)C)NC(=O)[C@H](CC(C)C)NC(=O)[C@H](CCC(N)=O)NC(=O)[C@H](Cc1c[nH]cn1)NC(=O)[C@H](CCC(=O)O)NC(=O)[C@H](CO)NC(=O)[C@@H](NC(=O)[C@H](C)N)C(C)C)[C@@H](C)CC)C(N)=O [A18, S22, L25, K26-PTHrP(1-28)NH, A18,S22,L25,K26-PTHrP(1-28)] (H-AVSEHQLLHDKGKSIQDARRRSFLLKLI-NH2; N-terminus assumed) | 0.009 nM | – | 367 % parent | – | IC50 ([2]; Table 3, read-out: dose-response human PIR RG (IC50 nM)): 0.1 nM
CC[C@H](C)[C@H](NC(=O)[C@H](CC(C)C)NC(=O)[C@H](CCCCN)NC(=O)[C@H](CC(C)C)NC(=O)[C@H](CC(C)C)NC(=O)[C@H](Cc1ccccc1)NC(=O)[C@H](CO)NC(=O)[C@H](CCCNC(=N)N)NC(=O)[C@H](CCCNC(=N)N)NC(=O)[C@H](CCCNC(=N)N)NC(=O)[C@H](CCC(=O)O)NC(=O)[C@H](CC(=O)O)NC(=O)[C@H](CCC(N)=O)NC(=O)[C@@H](NC(=O)[C@H](CO)NC(=O)[C@H](CCCCN)NC(=O)CNC(=O)[C@H](CCCCN)NC(=O)[C@H](CC(=O)O)NC(=O)[C@H](Cc1c[nH]cn1)NC(=O)[C@H](CC(C)C)NC(=O)[C@H](CC(C)C)NC(=O)[C@H](CCC(N)=O)NC(=O)[C@H](Cc1c[nH]cn1)NC(=O)[C@H](CCC(=O)O)NC(=O)[C@H](CO)NC(=O)[C@@H](NC(=O)[C@H](C)N)C(C)C)[C@@H](C)CC)C(N)=O [E18, S22, L25, K26-PTHrP(1-28)NH, E18,S22,L25,K26-PTHrP(1-28)] (H-AVSEHQLLHDKGKSIQDERRRSFLLKLI-NH2; N-terminus assumed) | 0.055 nM | – | 337 % parent | – | –
AVSEHQLLHDKGKSIQDERRRAFLLKLIAAIHTA [E18, A22, L25, K26, A30-PTHrP(1-34)OH, E18,A22,L25,K26,A30-PTHrP(1-34)] | – | 0.14 nM | – | – | screen cAMP (% parent) [5, 7]: 237 % parent
AVSEHQLLHDKGKSIQDERRRAFLLKLIADI [E18, A22, L25, K26, D30-PTHrP(1-31)OH, E18,A22,L25,K26,D30-PTHrP(1-31)] | – | 0.32 nM | – | 251 % parent | –
AVSEHQLLHDKGKSIQDERRRAFLLKLIAEAHTA [E18, A22, L25, K26, A31-PTHrP(1-34)OH, E18,A22,L25,K26,A31-PTHrP(1-34)] | – | 0.15 nM | – | – | screen cAMP (% parent) [5, 7]: 249 % parent
AVSEHQLLHDKGKSIQDERRRAFLLKLIAEL [E18, A22, L25, K26, L31-PTHrP(1-31)OH, E18,A22,L25,K26,L31-PTHrP(1-31)] | – | 0.25 nM | – | 198 % parent | –
AVSEHQLLHDKGKSIQDERRRAFLLKLIAKI [E18, A22, L25, K26, K30-PTHrP(1-31)OH, E18,A22,L25,K26,K30-PTHrP(1-31)] | – | 0.2 nM | – | 245 % parent | –
AVSEHQLLHDKGKSIQDERRRAFLLKLIKEI [E18, A22, L25, K26, K29-PTHrP(1-31)OH, E18,A22,L25,K26,K29-PTHrP(1-31)] | – | 0.28 nM | – | 227 % parent | –
AVSEHQLLHDKGKSIQDERRRAFLLKLIQDVHNF [E18,A22,L25,K26,Q29,D30,V31,N33,F34-PTHrP(1-34)] | – | 0.56 nM | – | – | screen cAMP (% parent) [5, 7]: 204 % parent
E18,A22,L25,K26,W29-PTHrP(1-31) (AVSEHQLLHDKGKSIQDERRRAFLLKLIWEI-OH) [E18, A22, L25, K26, W29-PTHrP(1-31)OH] | – | – | – | 142 % parent | –

Now from value to compound, other results behind:

EC50 [1] | EC50 [6] | Compound | screen cAMP (% parent) [3] | screen cAMP (% parent) [5, 8] | further results
0.012 nM | – | AVSEHQLLHDKGKSIQDARRRAFLKKLI [A18, 22, K25, 26-PTHrP(1-28)NH, A18,22,K25,26-PTHrP(1-28)] | 349 % parent | – | –
0.038 nM | – | AVSEHQLLHDKGKSIQDARRRSFLHKLI [A18, S22, K26-PTHrP(1-28)NH, A18,S22,K26-PTHrP(1-28)] | 372 % parent | – | screen human PIR R0 (% parent) [4]: 155 % parent; screen human PIR RG (% parent) ([2]; parent PTHrP(1-28)NH): 175 % parent
0.015 nM | – | AVSEHQLLHDKGKSIQDARRRSFLKKLI [A18, S22, K25, 26-PTHrP(1-28)NH, A18,S22,K25,26-PTHrP(1-28)] | 316 % parent | – | –
0.054 nM | – | AVSEHQLLHDKGKSIQDERRRAFLKKLI [E18, A22, K25, 26-PTHrP(1-28)NH, E18,A22,K25,26-PTHrP(1-28)] | 323 % parent | – | –
– | 0.78 nM | AVSEHQLLHDKGKSIQDERRRAFLLKLIAEI [E18, A22, L25, K26-PTHrP(1-31)OH, E18,A22,L25,K26-PTHrP(1-31)] | – | 100 % parent | –
– | 0.45 nM | AVSEHQLLHDKGKSIQDERRRAFLLKLIAEIHTA [E18, A22, L25, K26-PTHrP(1-34)OH, E18,A22,L25,K26-PTHrP(1-34)] | – | – | screen cAMP (% parent) [5, 7]: 100 % parent
– | 0.12 nM | AVSEHQLLHDKGKSIQDERRRAFLLKLIASI [E18, A22, L25, K26, S30-PTHrP(1-31)OH, E18,A22,L25,K26,S30-PTHrP(1-31)] | – | 331 % parent | –
– | 0.59 nM | AVSEHQLLHDKGKSIQDERRRAFLLKLIQEI [E18, A22, L25, K26, Q29-PTHrP(1-31)OH, E18,A22,L25,K26,Q29-PTHrP(1-31)] | – | 226 % parent | –
– | 0.41 nM | AVSEHQLLHDKGKSIQDERRRAFLLKLISEI [E18, A22, L25, K26, S29-PTHrP(1-31)OH, E18,A22,L25,K26,S29-PTHrP(1-31)] | – | 209 % parent | –
